The text below walks through data of patent US12630512B2, “Agents for differentiating stem cells and treating cancer” (Minerva Biotechnologies Corporation, priority 2017, dated 2026).

Assay type in all cases: cell-based
The test system of one assay is cancer cells. The experiment in a line: Cancer cell proliferation assay. As for the experimental part:
Percent inhibition of cancer cell migration was performed in a wound healing assay. The percent area that the invading cancer cells occupied, in the presence of a drug candidate compared to the controls, was quantified by Image J cell software which enables cell counting from photographs. IC50's were calculated by performing migration experiments at several compound concentrations and then applying Hill's equation. Inhibition of cancer cell proliferation was quantified by automated cell counting in the presence or absence of a drug candidate. […] The effect of the drug candidates on stem cell pluripotency or proliferation was scored by eye, based on cell morphology and cell density, with 0 being no change in morphology or cell number and 4 being the most profound effect, with the stem cells taking on the morphology of a differentiating cell, along with much fewer cells indicative of inhibition of proliferation. […]
For the cancer cell proliferation experiment cancer cells were plated at constant densities (6000 cells/well) into a 96-well White-walled/Clear-bottom Tissue Culture Treated plate (Corning Incorporated, Big Flats, NY). […] At the 120 hour mark a calcein fluorescence assay (Thermo Fisher Scientific, Waltham, MA) is performed on the plate. Calcein fluorescence (final concentration 0.5 uM) is used to assess cell viability. […]

Assay [1] concerns human primed state stem cells. The experiment in a line: Stem cell drug screen on primed state stem cells (pluripotency, proliferation, differentiation). The conditions noted are these: primed state stem cells; 6 uM per FIGS. 46-64. The method, then: (§1) The stem cell screening assay, was performed in both the presence and absence of the stem cell growth factors: NME7AB for growing naïve stem cells or FGF for growing primed stem cells. If the cognate growth factor was present, then the biological or small molecule would have to compete away the growth factor to get an effect. Therefore, we expected to see more of an effect when the growth factor, FGF for primed stem cells or NME7AB or NME1 dimers for naïve stem cells, was absent. The effect of the compounds on stem cells was visually determined and compounds were ranked 0-4, with 4 being the greatest effect and 0 being no observable effect. The major effect that was observed was a change from pluripotent stem cell morphology, which is a cobblestone pattern of small round cells with a large nucleus to cytoplasm ratio, to that of differentiating stem cells, which are elongated, large and flattened cells with a smaller nucleus to cytoplasm ratio. […] The compounds were added to a final concentration of 6 uM to either naïve state stem cells or primed state stem cells. In this particular case, the naïve state stem cells were maintained in a naïve state by culturing in a media containing NME7AB or NME1 dimers. However, other methods such as 2i and 5i (Silva et al., 2008, Nichols and Smith, 2009, Theunissen et al., 2014)] can be used to maintain stem cells in a more naïve state. In this case primed state stem cells were cultured in bFGF over a layer of MEFs, although it is known that any bFGF containing media will maintain stem cells in the primed state.
(§2) Percent inhibition of cancer cell migration was performed in a wound healing assay. The percent area that the invading cancer cells occupied, in the presence of a drug candidate compared to the controls, was quantified by Image J cell software which enables cell counting from photographs. IC50's were calculated by performing migration experiments at several compound concentrations and then applying Hill's equation. Inhibition of cancer cell proliferation was quantified by automated cell counting in the presence or absence of a drug candidate. Here, the inhibition of cancer cell proliferation was scored 1 if proliferation was inhibited by 25%, 2 if inhibited by […] and 4 for the highest degree of inhibition of proliferation, and 0 for the lowest. The effect of the drug candidates on stem cell pluripotency or proliferation was scored by eye, based on cell morphology and cell density, with 0 being no change in morphology or cell number and 4 being the most profound effect, with the stem cells taking on the morphology of a differentiating cell, along with much fewer cells indicative of inhibition of proliferation. As an example, FIGS. 30A-30F show photographs of naïve stem cell, primed stem cell and fibroblast controls. FIGS. 31A-31F show the effect of compounds of the invention on naïve state stem cells, where the number of ‘+’ signs indicates the score from 0-4 of ability of compound to inhibit pluripotency, proliferation of naïve stem cells or ability to induce their differentiation. […] FIGS. 36-44 and 65-87 show photographs and IC50 graphs of the compounds of the invention, inhibiting cancer cell migration and invasion. Cancer cell migration is a hallmark of metastatic cancer.
Stem cells whether embryonic or induced pluripotent stem (iPS) cells were cultured in a minimal, serum-free media that contained human recombinant bFGF at a concentration of 8 ng/mL. The stem cells were plated over a layer of inactivated mouse embryonic fibroblasts, aka MEFs, which secrete additional uncharacterized growth factors and cytokines.
Human naïve state and primed stem cells were cultured in parallel for at least 5 passages to guarantee normal differentiation-free growth. The stem cells were plated in 12-well cell culture plates with 50,000 cells per well. Cells were cultured in their respective media, either bFGF media or NME7AB media for 24 hours. […]

The test system of assay [2] is human naïve state stem cells. As to the kind of experiment: Stem cell drug screen on naïve state stem cells (pluripotency, proliferation, differentiation). Details: key to score for inhibition of naïve stem cell pluripotency and proliferation: 0 being no change in morphology or cell number; 4 being the most profound effect. The following applies: naïve state stem cells; for inhibition at 6 µM: Homo sapiens, 6 uM final concentration per FIGS. 46-64, read-out: inhibited naïve stem cell pluripotency and proliferation; for score for inhibition of naïve stem cell pluripotency and proliferation: scored by eye 0-4, 6 uM per FIGS. 46-64. The method, then: as §1, §2
Stem cells whether embryonic or induced pluripotent stem (iPS) cells were cultured in a minimal, serum-free media that contained human recombinant NME7AB at a concentration of 2-32 nM wherein 4-8 nM is preferred and 4 nM is more preferred. To facilitate surface attachment, cell culture plates were coated with an anti-MUC1* monoclonal antibody called MN-C3 or C3 or MN-C8 at a concentration of 2-100 μg/mL coating solution, wherein 3-50 ug/mL is preferred and 6-12.5 ug/mL is more preferred. In these experiments, 12.5 ug/mL of MN-C3 was used. Antibody coated plates were incubated at 4 degrees C. overnight prior to plating stem cells. A Rho kinase I inhibitor was added to enhance surface attachment. […]

With `C[C@@H]1Cc2c([nH]c3ccccc23)CN1C(=O)C1CCC(CN(C)C(=O)NC(C)(C)C)CC1` (some centres unmarked) [MN1423], in the assay with cancer cells, the “inhibited cancer cell proliferation” value amounted to 50%. Further, in assay [1], the “effect on primed state stem cells” value is “no effect”. In addition, in assay [2], the inhibition at 6 µM worked out at 100%; the “score for inhibition of naïve stem cell pluripotency and proliferation” value (shortened to “score for inhibition”) came out at 4.

On to `CN(CC1CCC(C(=O)N2CCC(c3ccncc3)CC2)CC1)C(=O)OC(C)(C)C` (centres unmarked) [MN1428, Tert-butyl methyl((4-(4-(pyridin-4-yl)piperidine-1-carbonyl)cyclohexyl)methyl)carbamate], for which, in assay [1], the “effect on primed state stem cells” value was “no effect”. In assay [2], the inhibition at 6 µM came to 100%; the “score for inhibition” value is listed as 4.

Regarding `CN(C[C@H]1CC[C@H](C(=O)N2CCc3c([nH]c4ccccc34)C2C2CC2)CC1)C(=O)NC(C)(C)C` (some centres unmarked) [MN1413], in the assay with cancer cells, the “inhibited cancer cell proliferation” value is “about 50%”. Further, the “effect on primed state stem cells” value in assay [1] is “no effect”. In addition, in assay [2], the inhibition at 6 µM was 100%; the “score for inhibition” value amounted to 4.
